In PubChem BioAssay (NCI):
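Each compound was tested at five concentrations against cells in 96-well plates for 48 hours. TGI: concentration producing complete growth inhibition.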

Columns and labels:
Test in all cases: DTP human tumour cell line panel, 48 h
[1] = system: UO-31 renal
[2] = system: ACHN renal
[3] = system: SK-MEL-28 melanoma
[4] = system: NCI-H460 lung
[5] = system: HCT-116 colon
[6] = system: SF-539 CNS
[7] = system: SK-MEL-5 melanoma
[8] = system: LXFL 529 NSCLC
[9] = system: OVCAR-8 ovarian
[10] = system: SF-295 CNS
[11] = system: XF 498 CNS
[12] = system: A498 renal
[13] = system: DMS 273 small cell lung
[14] = system: M19-MEL melanoma
[15] = system: OVCAR-5 ovarian
[16] = system: SR leukemia
[17] = system: HOP-18 NSCLC
[18] = system: UACC-62 melanoma
[19] = system: DLD-1 colon
[20] = system: A549 NSCLC
[21] = system: OVCAR-4 ovarian
[22] = system: SN12C renal
[23] = system: OVCAR-3 ovarian
[24] = system: CCRF-CEM leukemia
[25] = system: HOP-62 NSCLC
[26] = system: SNB-78 CNS
[27] = system: HT29 colon
[28] = system: HOP-92 NSCLC
[29] = system: NCI-H226 lung
[30] = system: NCI-H23 lung
[31] = system: EKVX NSCLC
[32] = system: U251 CNS
[33] = system: SNB-19 CNS
[34] = system: SW-620 colon
[35] = system: RXF-631 renal
[36] = system: SK-MEL-2 melanoma
[37] = system: SK-OV-3 ovarian
[38] = system: SF-268 CNS
[39] = system: KM12 colon
[40] = system: RPMI-8226 leukemia
[41] = system: TK-10 renal
[42] = system: HCC-2998 colon
[43] = system: CAKI-1 renal
[44] = system: NCI-H522 lung
[45] = system: DMS 114 small cell lung
[46] = system: 786-0 renal
[47] = system: IGROV1 ovarian
[48] = system: MOLT-4 leukemia
[49] = system: SNB-75 CNS
[50] = system: K-562 leukemia
[51] = system: LOX IMVI melanoma
[52] = system: COLO 205 colon
[53] = system: UACC-257 melanoma
[54] = system: MALME-3M melanoma
[55] = system: M14 melanoma

Structure (SMILES): Cc1cc(C)nc(Sc2c([N+](=O)[O-])ncn2C)n1
- TGI [1]: > 100 µM
- TGI [2]: > 100 µM
- TGI [3]: > 100 µM
- TGI [4]: > 100 µM
- TGI [5]: > 100 µM
- TGI [6]: > 100 µM
- TGI [7]: > 100 µM
- TGI [8]: > 100 µM
- TGI [9]: > 100 µM
- TGI [10]: > 100 µM
- TGI [11]: > 100 µM
- TGI [12]: > 100 µM
- TGI [13]: > 100 µM
- TGI [14]: > 100 µM
- TGI [15]: > 100 µM
- TGI [16]: > 100 µM
- TGI [17]: 85.4 µM
- TGI [18]: > 100 µM
- TGI [19]: > 100 µM
- TGI [20]: > 100 µM
- TGI [21]: > 100 µM
- TGI [22]: > 100 µM
- TGI [23]: > 100 µM
- TGI [24]: > 100 µM
- TGI [25]: > 100 µM
- TGI [26]: > 100 µM
- TGI [27]: > 100 µM
- TGI [28]: > 100 µM
- TGI [29]: > 100 µM
- TGI [30]: > 100 µM
- TGI [31]: > 100 µM
- TGI [32]: > 100 µM
- TGI [33]: > 100 µM
- TGI [34]: > 100 µM
- TGI [35]: > 100 µM
- TGI [36]: > 100 µM
- TGI [37]: > 100 µM
- TGI [38]: > 100 µM
- TGI [39]: > 100 µM
- TGI [40]: > 100 µM
- TGI [41]: > 100 µM
- TGI [42]: > 100 µM
- TGI [43]: > 100 µM
- TGI [44]: > 100 µM
- TGI [45]: > 100 µM
- TGI [46]: > 100 µM
- TGI [47]: > 100 µM
- TGI [48]: > 100 µM
- TGI [49]: > 100 µM
- TGI [50]: > 100 µM
- TGI [51]: > 100 µM
- TGI [52]: > 100 µM
- TGI [53]: > 100 µM
- TGI [54]: > 100 µM
- TGI [55]: > 100 µM
